Results on two compounds are retold here after patent publication US20170298090A1, “Modulators of ROR-gamma Receptors, Composition and Use Thereof” (KULING THERAPEUTICS, priority 2016, published 2017).

Entries after “also recorded” stand apart in the source; their conditions may differ. Read-outs that look alike come from different tables or passages of the source.

Data set [1] deals with experimental autoimmune encephalomyelitis (EAE). The experiment in a line: MOG-induced EAE, therapeutic disease model. In kind it is in vivo, mice. As to conditions: ~250 mg/kg gavage twice daily from Day 9. As for the experimental part:
(§1) MOG-induced Experimental Autoimmune Encephalomyelitis (EAE)—EAE induction were performed by immunizing mice twice with MOG35-55 peptide (amino acids 35-55; MEVGWYRSPFSROVHLYRNGK) emulsified in CFA followed by pertussis toxin injection with slight modifications, and analyzed as previously described. […] The Journal of biological chemistry 286: 22707-22710 (2011); Wang, X., et al. Transcription of Il17 and Il17f is controlled by conserved noncoding sequence 2. Immunity 36: 23-31 (2012). Briefly, the disease scores were assigned on a scale of 0-5 as follows: 0, none; 1, limp tail or waddling gait with tail tonicity; 2, wobbly gait; 3, hindlimb paralysis; 4, hindlimb and forelimb paralysis; 5, death.
To test the therapeutic potential of KL001, EAE was first induced by MOG immunization and PTX injection as described.

In data set [2] the test system is Th17 cells. Description: Th17 differentiation of mouse naive CD4+ T cells, IL-17/IL-17F intracellular staining. Particulars: for inhibition of TH17 differentiation (in words): 2-10 μM, in vitro culture; for IL-17 and IL-17F expression in Th17 cells (in words): FIG. 1. Format: cell-based. The method, then: T-cell Isolation and Differentiation—Mouse T cell differentiation was performed and analyzed by intracellular staining as described. […] The Journal of biological chemistry 286: 22707-22710 (2011); Wang, X., et al. Transcription of Il17 and Il17f is controlled by conserved noncoding sequence 2. Immunity 36: 23-31 (2012). Briefly, mouse naïve CD4^+ T cells (CD4^+CD25^−CD62L^hi-CD44^lo) were isolated from spleens and lymph nodes by FACS sorting. Th17 differentiation was performed with 15 ng ml^− IL-6 and 2.5 ng ml^− TGF-β in the presence of 1 μg ml^− anti-CD3 (plate bound) and 1 μg ml^− anti-CD28 (plate bound) for 4 days. When indicated, different concentrations of UA, KL001, other UA analogs or small molecules (dissolved in DMSO) were added at the beginning of Th17 differentiation. The mature Th17 cells were restimulated with 50 ng ml^− PMA (phorbol 12-myristate 13-acetate) and 500 ng ml^− inomycin in the presence of BD GolgiStop™ for 6 hrs, stained intracellularly for IL-17 and IL-17F, and then analyzed by flow cytometry.
UA and its analogs KL001 to KL005, 201702-1 to 201702-4, and 201509-1 to 201509-3 inhibit TH17 differentiation. Mouse naïve CD4+ T cells were cultured under Th17 polarizing condition in the presence of above chemicals (2-10 μM) or DMSO control (Ctrl) for 4 days and then restimulated for IL-17 and IL-17F staining (FIG. 1). […] The Journal of biological chemistry 286: 22707-22710 (2011), 2 μM UA inhibited ˜80% IL-17 expression and ˜50% IL-17F expression, both of which were reported to contribute TH17-mediated autoimmune diseases Yang, X. O., Chang, S. H., Park, H. et al. Regulation of inflammatory responses by IL-17F. The Journal of experimental medicine, 205: 1063-1075 (2008). […] (FIG. 1), whereas other UA analogs inhibited TH17 differentiation at a less degree (FIG. 1 and FIG. 6).

Data set [3] deals with imiquimod (IMQ)-induced psoriasis. Description: IMQ-induced psoriasis, preventative disease model. As to conditions: ~250 mg/kg gavage twice daily. Format: in vivo, C57BL/6 mice. The method, then:
IMQ-induced psoriasis model—The mouse psoriasis model was induced according to previous described with minor modifications. van der Fits L, et al. (2009) Imiquimod-induced psoriasis-like skin inflammation in mice is mediated via the IL-23/IL-17 axis. J Immunol 182(9):5836-5845. Briefly, 7-9 weeks old female C57BL/6 mice were used to induce psoriasis. On day 0, the hair was removed from the dorsal skin of the mice after anaesthetizing with pentobarbital (˜0.2 ml/20 g body weight by i.p.). On day 1, psoriasis was induced […] by applying 62.5 mg 5% imiquimod cream to the dorsal skin after anaesthesia on a daily base. In the preventative disease model, KL001 (dissolved in 0.5% methylcellulose (MC)) or 0.5% MC (control group) was orally administrated into C57BL/6 mice by gavage at a dosage of ˜250 mg/kg body weight twice daily starting 2 days before induction of psoriasis (Day −2). The mice were then sacrificed on Day 5, and the skin tissues were then removed for H&E staining and mRNA expression analysis. […] The expression of Il17, Il17f and Rorc (encoding RORγt) were then quantified by realtime PCR and normalized to Actb gene by using the following primers: Actb, F: […]/R (SEQ ID NO.1): […] […]

Data set [4] deals with experimental autoimmune encephalomyelitis (EAE). The experiment in a line: MOG-induced EAE, preventative disease model. In kind it is in vivo, mice. As to conditions: for IL-17 expression of T cells infiltrated into the central nerve system: 100 mg/kg i.p. every other day; for effect on EAE disease (in words): 100 mg/kg i.p. every other day after first MOG immunization. As for the experimental part: as §1
The Journal of biological chemistry 286: 22707-22710 (2011).

The test system of data set [5] is Th17 cells. As to conditions: previous studies (Xu et al. 2011); read-out: IC50 in inhibiting Th17 differentiation; cited from earlier work.
In another data set the target is STAT3 (Homo sapiens, UniProt P40763). Particulars: previous studies; cited from earlier work.
Another data set has as its system rodents. As to conditions: cited from earlier work.
[6] abbreviates: 2 μM, Th17 polarizing condition, 4 days.

Chain of STAT3 (P40763 whole entry, species assumed): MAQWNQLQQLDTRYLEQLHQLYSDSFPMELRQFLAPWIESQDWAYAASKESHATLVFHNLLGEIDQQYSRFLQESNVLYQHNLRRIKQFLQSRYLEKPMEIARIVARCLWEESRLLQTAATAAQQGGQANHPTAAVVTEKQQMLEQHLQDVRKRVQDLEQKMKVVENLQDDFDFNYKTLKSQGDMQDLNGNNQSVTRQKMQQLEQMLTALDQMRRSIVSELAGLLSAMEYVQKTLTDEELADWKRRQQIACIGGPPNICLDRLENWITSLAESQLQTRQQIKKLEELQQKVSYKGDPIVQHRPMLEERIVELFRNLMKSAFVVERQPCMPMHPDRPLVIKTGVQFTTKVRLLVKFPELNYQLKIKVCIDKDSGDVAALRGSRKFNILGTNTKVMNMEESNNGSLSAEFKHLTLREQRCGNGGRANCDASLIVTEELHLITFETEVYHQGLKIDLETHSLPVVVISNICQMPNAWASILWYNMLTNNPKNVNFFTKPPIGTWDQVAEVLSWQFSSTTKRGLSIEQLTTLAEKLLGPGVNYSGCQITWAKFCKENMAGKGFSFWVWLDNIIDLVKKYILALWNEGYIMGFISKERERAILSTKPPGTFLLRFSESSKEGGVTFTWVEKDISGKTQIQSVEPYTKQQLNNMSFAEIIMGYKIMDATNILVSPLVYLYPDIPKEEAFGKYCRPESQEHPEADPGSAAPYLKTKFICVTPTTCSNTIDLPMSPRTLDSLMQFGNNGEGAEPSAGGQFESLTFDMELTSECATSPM

Broadly, the IC50 is the concentration that inhibits the measured activity by half. Take `Cc1oc(=O)oc1COC(=O)[C@]12CC[C@@H](C)[C@H](C)[C@H]1C1=CC[C@@H]3[C@@]4(C)CC[C@H](O)C(C)(C)[C@@H]4CC[C@@]3(C)[C@]1(C)CC2` [KL001, (5-methyl-2-oxo-1,3-dioxol-4-yl)methyl (1S,2R,4aS,6aS,6bR,8aR,10S,12aR,12bR,14bS)-10-hydroxy-1,2,6a,6b,9,9,12a-heptamethyl-1,3,4,5,6,6a,6b,7,8,8a,9,10,11,12,12a,12b,13,14b-octadecahydropicene-4a(2H)-carboxylate]: in data set [1], the “effect on EAE disease (in words)” value is listed as “significantly reduced the disease severity; also recorded: ameliorated” and the “reduction of average disease scores vs control group” value is on record as 50%. The “inhibition of TH17 differentiation (in words)” value in the data set with Th17 cells [2] (4 days) is recorded as “comparable level to UA; also recorded: comparable efficacy with UA”. Besides, the “IL-17 and IL-17F expression in Th17 cells (in words)” value in the data set with Th17 cells [2] is “inhibited”. The IC50 with Th17 cells [2] (Mus musculus, CD4+ T, readout of IL-17 staining, titration, read-out: IC50 in inhibiting Th17 differentiation) is about 490 nM. Besides, in data set [3], the “psoriatic symptoms, redness and roughness of the skin (in words)” value is “visually and greatly reduced; also recorded: ameliorated psoriatic symptoms”. Also, the “expression of IL-17 in skin samples” value in data set [3] (mRNA) is given as “notably reduced”. Also, in data set [4], the “IL-17 expression of T cells infiltrated into the central nerve system” value was “significantly reduced” and the “effect on EAE disease (in words)” value is listed as “greater degree than UA; also recorded: ameliorated”.

Consider `C[C@H]1[C@H](C)CC[C@]2(C(=O)O)CC[C@]3(C)C(=CC[C@@H]4[C@@]5(C)CC[C@H](O)C(C)(C)[C@@H]5CC[C@]43C)[C@H]12` [UA, ursolic acid, reference compound], for which, in the data set with Th17 cells [5], the IC50 is 680 nM. The “concentration at which inhibitory activity on STAT3 was observed” value at STAT3 is listed as “higher than 25 μM”. Also, the “acute toxicity LD50” value in the data set on rodents (intraperitoneal injection (Lee et al. 2010)) is on record as over 637 mg/kg. Further, the “acute toxicity LD50” value in the data set with rodents (oral administration (Lee et al. 2010)) is given as 8330 mg/kg. Moreover, the “effect on EAE disease (in words)” value in data set [1] is on record as “did not affect; also recorded: but not UA, ameliorated”. For the same compound, in the data set on Th17 cells [2] (setting [6]), the “inhibition of IL-17F expression” value is given as about 50% and the “inhibition of IL-17 expression” value is listed as about 80%. Also, the “inhibition of TH17 differentiation (in words)” value in the data set with Th17 cells [2] (4 days) is “inhibit”. For the same compound, in the data set with Th17 cells [2], the “IL-17 and IL-17F expression in Th17 cells (in words)” value is reported as “inhibited”. Moreover, in data set [4], the “IL-17 expression of T cells infiltrated into the central nerve system” value was “significantly reduced” and the “effect on EAE disease (in words)” value was “ameliorated”.
